# Columns and labels:
# Test in all cases: MIC/MBC broth-dilution (micromethod), CLSI
# Type in all cases: cell-based
# [1] = test system: S. Aureus strain 1 (collection) mec a+; conditions: Staphylococcus aureus; for MBC: kills 99,9% of initial population; for MIC: marked *: MIC value read at 48 hours
# Source text: (§1) Determination of Minimal Inhibitory Concentration (MIC), Minimal Bactericidal Concentration (MBC), bactericidal curves and killing rate on Gram positive and Gram negative bacteria strains, for the evaluation of the bactericidal activity of compounds of example 1 (n. 1 to 14).
# (§2) In details, phenotypic methods based on in vitro MIC and MBC determination have been performed on previously isolated bacterial strains, identified and characterized at the level of their antibiotic susceptibility profile. According to MIC and MBC data, the Killing Rate was calculated as the ratio between MBC and MIC on which basis it is possible to define the compounds tested as bactericides (killing rate=1-4), or bacteriostatic (killing rate >4).
# (§3) Preparation of the solution containing molecules: for each molecule to be tested, solutions were made as DMSO Stock, with a concentration of 2.560 mg/ml, used to test 12 dilutions with the following scalar drug concentrations: 512-256-128-64-32-16-8-4-2-1-0.5-0.25 μg/ml. The scalar dilutions were prepared directly on plates by using Mueller Hinton Broth (MHB) as a solvent.
# Bacterial suspension preparation: cryostrains preserved at −80° C. were recovered by incubation in growth medium (Brain Heart Infusion Broth, BHI) for 24-48 hours at 37° C. followed by passages in agar growth medium (Columbia Blood Agar). Colonies with less than 30 hours are suspended in MHB with the purpose to prepare a bacterial suspension with a turbidity of 0.5 MF, containing approximately 1.5×10^8 cfu/ml. This injection is additionally diluted in MHB until reaching a final concentration of 5×10^5 cfu/ml (range 3-7×10^5 cfu/ml). Identical volumes of this bacterial suspension are added on a plate, for each well containing drug scalar dilutions, to obtain a final concentration between 512 a 0.25 μg/ml. The set up of bacterial suspensions as well as the passage on slate has always been performed within 30 minutes, in order not to alter the concentration of the bacterial suspension. Simultaneously, check in broth-microdilution only with solvent (in order to exclude that the effect of growth inhibition might be due to the drug solution solvent), positive growth control in absence of DMSO and drug, and negative purity control only with injection broth are performed. As a consequence the slate is incubated at 37° C. for 24 and 48 hours in aerobes. […] The same observations are valid to evaluate 48 hours MIC. After the incubation, an equal volume of bacterial suspension from each well is plated on agar growth medium and incubated for 24-48 hours at a temperature of 37° C. in aerobes, in order to define the MBC after the incubation.
# Bacterial strains: the bactericidal and/or bacteriostatic power of the synthesized compounds can be determined by using standard reference strains such as: • 1. S. Aureus ATCC 25923 res kan, tob, res streptogramine (sga-sgb, efflux), res mupirocina (at low level), res trimetoprim; • 2. S. Aureus strain 1 (collection) mec a+, res kan tob gen, res quinolones, lincosamides, res streptogramine (sga-sgb), mlsb+sa constituent, mlsb constituent, res mupirocine (low level), res trimetoprim; • 3. S. Aureus strain 2 (collection) acquired penicillinase, res kan tob, res streptogramine (sga-sgb, efflux), res mupirocine (low level), res trimetoprim; • 4. Enterococcus faecalis ATCC 51299 (str+gen res at high level, mlsb res, simil van b res); • 5. Enterococcus faecalis strain 1 (collection) (str+kan res at high level str res at high level tetracycline res); • 6. Enterococcus faecalis strain 2 (collection) (kan res at high level); • 7. E. coli of Collection: RESISTANT to ampicilline, amox+ac clav, ampicillinr+sulbactam, cefalexine, cefuroxime, cefuroxime axetil, cefixime, cefpodoxime, cefotaxime, ceftazidime, ceftriaxone, netilmicine, tobramicine, ciprofloxcine, trim/sulfametox, esbl pos, SENSITIVE to meropenem and gentamicine, INTERMEDIATE to amikacine; • 8. 8.
# [2] = test system: S. Aureus ATCC 25923; conditions: Staphylococcus aureus; for MBC: ATCC25923, kills 99,9% of initial population
# Source text: as §1
# as §2, with “Sensitivity tests have been performed in broth-dilution (micromethod) with the purpose to test the possible bacteriostatic and/or bactericidal power in different compounds, in accordance with CLSI guidelines (Clinical and Laboratory Standards Institute). In” for “In”
# as §3
# (§4) Bacterial suspension preparation: cryostrains preserved at −80° C. were recovered by incubation in growth medium (Brain Heart Infusion Broth, BHI) for 24-48 hours at 37° C. followed by passages in agar growth medium (Columbia Blood Agar). Colonies with less than 30 hours are suspended in MHB with the purpose to prepare a bacterial suspension with a turbidity of 0.5 MF, containing approximately 1.5×10^8 cfu/ml. This injection is additionally diluted in MHB until reaching a final concentration of 5×10^5 cfu/ml (range 3-7×10^5 cfu/ml). Identical volumes of this bacterial suspension are added on a plate, for each well containing drug scalar dilutions, to obtain a final concentration between 512 a 0.25 μg/ml. The set up of bacterial suspensions as well as the passage on slate has always been performed within 30 minutes, in order not to alter the concentration of the bacterial suspension. Simultaneously, check in broth-microdilution only with solvent (in order to exclude that the effect of growth inhibition might be due to the drug solution solvent), positive growth control in absence of DMSO and drug, and negative purity control only with injection broth are performed. As a consequence the slate is incubated at 37° C. for 24 and 48 hours in aerobes. The 24 hours MIC is considered as the minimum drug concentration able to inhibit bacterial growth, which makes it possible to observe the absence of bacterial growth and the absence of turbidity. The same observations are valid to evaluate 48 hours MIC. After the incubation, an equal volume of bacterial suspension from each well is plated on agar growth medium and incubated for 24-48 hours at a temperature of 37° C. in aerobes, in order to define the MBC after the incubation. The MBC is evaluated as the minimum concentration of drug able to kill the 99,9% of the initial bacterial population.
# (§5) Bacterial strains: the bactericidal and/or bacteriostatic power of the synthesized compounds can be determined by using standard reference strains such as: • 1. S. Aureus ATCC 25923 res kan, tob, res streptogramine (sga-sgb, efflux), res mupirocina (at low level), res trimetoprim; • 2. S. Aureus strain 1 (collection) mec a+, res kan tob gen, res quinolones, lincosamides, res streptogramine (sga-sgb), mlsb+sa constituent, mlsb constituent, res mupirocine (low level), res trimetoprim; • 3. S. Aureus strain 2 (collection) acquired penicillinase, res kan tob, res streptogramine (sga-sgb, efflux), res mupirocine (low level), res trimetoprim; • 4. Enterococcus faecalis ATCC 51299 (str+gen res at high level, mlsb res, simil van b res); • 5. […]
# [3] = test system: A. baumannii of collection; conditions: Acinetobacter baumannii; for MBC: kills 99,9% of initial population
# Source text: as §1
# as §2, with “Sensitivity tests have been performed in broth-dilution (micromethod) with the purpose to test the possible bacteriostatic and/or bactericidal power in different compounds, in accordance with CLSI guidelines (Clinical and Laboratory Standards Institute). In” for “In”
# as §3, §4, §5
# [4] = test system: S. Aureus strain 2 (collection); conditions: Staphylococcus aureus; for MBC: kills 99,9% of initial population; for MIC: values without asterisk
# Source text: as §1
# as §2, with “Sensitivity tests have been performed in broth-dilution (micromethod) with the purpose to test the possible bacteriostatic and/or bactericidal power in different compounds, in accordance with CLSI guidelines (Clinical and Laboratory Standards Institute). In” for “In”
# as §3, §4, §5
# [5] = test system: E. coli of Collection; conditions: Escherichia coli
# Source text: as §1
# as §2, with “Sensitivity tests have been performed in broth-dilution (micromethod) with the purpose to test the possible bacteriostatic and/or bactericidal power in different compounds, in accordance with CLSI guidelines (Clinical and Laboratory Standards Institute). In” for “In”
# as §3, §4, §5
# [6] = test system: Enterococcus faecalis strain 2 (collection); conditions: for MBC: E. FAECALIS strain 2, kills 99,9% of initial population
# Source text: as §1
# as §2, with “Sensitivity tests have been performed in broth-dilution (micromethod) with the purpose to test the possible bacteriostatic and/or bactericidal power in different compounds, in accordance with CLSI guidelines (Clinical and Laboratory Standards Institute). In” for “In”
# as §3, §4, §5
# [7] = test system: Enterococcus faecalis ATCC 51299; conditions: for MBC: ATCC51299, E. FAECALIS ATCC 51299, kills 99,9% of initial population; for MIC: ATCC51299, E. FAECALIS ATCC 51299, values without asterisk
# Source text: as §1
# as §2, with “Sensitivity tests have been performed in broth-dilution (micromethod) with the purpose to test the possible bacteriostatic and/or bactericidal power in different compounds, in accordance with CLSI guidelines (Clinical and Laboratory Standards Institute). In” for “In”
# as §3, §4, §5
# [8] = test system: P. Aeruginosa of collection; conditions: Pseudomonas aeruginosa
# Source text: as §1
# as §2, with “Sensitivity tests have been performed in broth-dilution (micromethod) with the purpose to test the possible bacteriostatic and/or bactericidal power in different compounds, in accordance with CLSI guidelines (Clinical and Laboratory Standards Institute). In” for “In”
# as §3, §4, §5
# [9] = test system: Enterococcus faecalis strain 1 (collection); conditions: for MBC: E. FAECALIS strain 1, kills 99,9% of initial population
# Source text: as §1
# as §2, with “Sensitivity tests have been performed in broth-dilution (micromethod) with the purpose to test the possible bacteriostatic and/or bactericidal power in different compounds, in accordance with CLSI guidelines (Clinical and Laboratory Standards Institute). In” for “In”
# as §3, §4, §5
# [10] = ATCC25923, values without asterisk
# [11] = E. FAECALIS strain 2, marked *: MIC value read at 48 hours
# [12] = E. FAECALIS strain 1, marked *: MIC value read at 48 hours
MIC [1],MIC [3],MIC [4],MIC [5],MIC [7],MIC [8],"MIC [6, 11]","MIC [9, 12]","MIC ([2]; ATCC25923, marked *: MIC value read at 48 hours)",SMILES,MBC [1],MBC [2],"MIC [2, 10]",MBC [4],MBC [6],"MIC ([6]; E. FAECALIS strain 2, values without asterisk)",MBC [7],MBC [9],"MIC ([9]; E. FAECALIS strain 1, values without asterisk)",MBC [3]
2 to 4 µg/mL,128 µg/mL,4 µg/mL,512 µg/mL,8 µg/mL,256 µg/mL,4 to 8 µg/mL,4 to 8 µg/mL,,"CON=Cc1cc(/C=C/C(=O)O)ccc1-c1ccc(O)c(C23CC4CC(CC(C4)C2)C3)c1 [Compound 13, 3-[3′-Adamantan-1-yl-4′-hydroxy-2-methoxyimino-methyl-biphenyl-4-yl]-acrylic acid]",4 µg/mL,4 µg/mL,2 µg/mL,32 µg/mL,16 µg/mL,,32 µg/mL,16 µg/mL,,512 µg/mL
4 to 8 µg/mL,128 µg/mL,4 µg/mL,256 µg/mL,2 µg/mL,256 µg/mL,0.5 to 1 µg/mL,2 to 4 µg/mL,4 to 8 µg/mL,"O=C(O)/C=C/c1ccc(-c2ccc(O)c(C34CC5CC(CC(C5)C3)C4)c2)cc1 [adarotene, reference compound]",16 µg/mL,16 µg/mL,,8 µg/mL,16 µg/mL,,32 µg/mL,32 µg/mL,,512 µg/mL

SMILES,MIC [1],MIC [3],MIC [4],MIC [5],MIC [7],MIC [8],"MIC [6, 11]","MIC [9, 12]","MIC ([2]; ATCC25923, marked *: MIC value read at 48 hours)",MBC [1],MBC [2],"MIC [2, 10]",MBC [4],MBC [6],"MIC ([6]; E. FAECALIS strain 2, values without asterisk)",MBC [7],MBC [9],"MIC ([9]; E. FAECALIS strain 1, values without asterisk)",MBC [3]
"CC(C)(C)ON=Cc1cc(C=CC(=O)O)ccc1-c1ccc(O)c(C23CC4CC(CC(C4)C2)C3)c1 [Compound 12, 3-[3′-Adamantan-1-yl-4′hydroxy-2-tert-butoxyiminomethyl-biphenyl-4-yl]-acrylic acid]",2 to 4 µg/mL,128 µg/mL,2 µg/mL,256 µg/mL,2 µg/mL,256 µg/mL,,,,4 µg/mL,4 µg/mL,2 µg/mL,2 µg/mL,4 µg/mL,2 µg/mL,8 µg/mL,8 µg/mL,2 µg/mL,

# Reference: patent US20220281835A1, “PHENOL DERIVATIVES FOR USE AS ANTIMICROBIAL, ANTIBACTERIAL, BACTERICIDE” (SPECIAL PRODUCT'S LINE S.P.A., priority 2019, published 2022)
